This note sets out measurements from US10450271B2 (priority 2014, dated 2019).

The test system of assay [1] is Fusarium graminearum. The format is cell-based. The conditions noted are these: ethanol as solvent; 500 uL medium lyophilized; HPLC can detect down to ng/sample.
Assay [2] concerns Aspergillus parasiticus. In kind it is cell-based.

In the case of `COc1cc(/C=C/C(=O)N2CCCCC2)ccc1O` [Compound 1], in assay [1], the “DON detection by HPLC analysis” value was “some DON was detected”.

With `COc1cc(/C=C/C(=O)N2CCCCC2=O)ccc1O` [Compound 3, (E)-1-(3-(4-hydroxy-3-methyoxyphenyl)acryloyl)piperidin-2-one], the “reduction of aflatoxin levels” value in assay [2] (25 ppm, liquid culture, TLC analysis) is “up to 80%”. In addition, in assay [2] (liquid culture, TLC analysis), the “lowest effective concentration for reducing aflatoxin levels” value was 25 ppm. Also, in assay [1], the “DON detection by HPLC analysis” value was “not detected”.

`COc1cc(/C=C/C(=O)N2CCCC2)ccc1O` [Compound 2]: the “DON detection by HPLC analysis” value in assay [1] is “some DON was detected”.

Take `CCC=CCC=CCC=CCCCCCCCC(=O)N1CCCCC1` [Compound 7]: the “effect on aflatoxin accumulation in culture (in words)” value in assay [2] is on record as “reduced aflatoxin accumulation in culture, but the effect was inconsistent from one trial to the next”. In addition, the “DON detection by HPLC analysis” value in assay [1] is recorded as “not detected”.
